Converted amounts (≈) assume the structure as drawn. The source made the active and inactive calls. The rule behind the calls is not given here.
Tests used:
L929 = test: Cytotoxicity against mouse L929 cells assessed as reduction in cell viability by MTT assay; format: functional, cell-based
Bacillus subtilis = test: Antimicrobial activity against Bacillus subtilis DSM10 by serial dilution method; format: functional
Staphylococcus aureus = test: Antimicrobial activity against Staphylococcus aureus DSM346 by serial dilution method; format: functional
KB 3-1 = test: Cytotoxicity against human KB3.1 cells assessed as reduction in cell viability by MTT assay; format: functional, cell-based
Micrococcus luteus = test: Antimicrobial activity against Micrococcus luteus DSM1790 by serial dilution method; format: functional
Wickerhamomyces anomalus = test: Antimicrobial activity against Pichia anomala DSM6766 by serial dilution method; format: functional
[1] = tested on: Mycolicibacterium smegmatis; test: Antimicrobial activity against Mycobacterium smegmatis DSM44200 by serial dilution method; format: functional
Mucor hiemalis = test: Antimicrobial activity against Mucor hiemalis DSM2656 by serial dilution method; format: functional
Candida albicans = test: Antimicrobial activity against Candida albicans DSM1665 by serial dilution method; format: functional
[2] = Mus musculus, L929, read-out: IC50

Compound: C/C(=C\c1csc(C)n1)[C@@H]1C[C@@H]2O[C@]2(C)CCC[C@H](C)[C@H](O)[C@@H](C)C(=O)C(C)(C)[C@@H](O)CC(=O)O1 [PATUPILONE]
- IC50 (L929; [2]): 0.0026 µM

Compound: CC1=CC(=O)C(c2c(C=O)c(O)c(O)c3c2[C@@H](C(C)C)CC[C@@H]3C)=C(O)C1=O
- MIC (Bacillus subtilis): 12.5 µg/mL (≈ 32.5 µM)
- MIC (Staphylococcus aureus): 50 µg/mL (≈ 130 µM)
- IC50 (KB 3-1): Not Active
- MIC (Micrococcus luteus): 3.1 µg/mL (≈ 8.06 µM)
- MIC (Wickerhamomyces anomalus; Hansenula anomala): 100 µg/mL (≈ 260 µM)
- MIC [1]: 100 µg/mL (≈ 260 µM)
- MIC (Mucor hiemalis): 25 µg/mL (≈ 65 µM)
- IC50 (L929; [2]): 5.5 µM
- MIC (Candida albicans): 100 µg/mL (≈ 260 µM)

Compound: GENTAMICIN
- MIC (Staphylococcus aureus): 9.2 µg/mL

Compound: COc1c(O)c2c(c3cnc4c(c13)C(=O)C=C(C)C4=O)[C@@H](C(C)C)CC[C@@H]2C
- MIC (Bacillus subtilis): 6.3 µg/mL (≈ 16.6 µM)
- MIC (Staphylococcus aureus): 50 µg/mL (≈ 132 µM)
- IC50 (KB 3-1): Not Active
- MIC (Micrococcus luteus): 6.3 µg/mL (≈ 16.6 µM)
- MIC (Wickerhamomyces anomalus; Hansenula anomala): 100 µg/mL (≈ 264 µM)
- MIC [1]: inactive
- MIC (Mucor hiemalis): 50 µg/mL (≈ 132 µM)
- IC50 (L929; l929): Not Active
- MIC (Candida albicans): 100 µg/mL (≈ 264 µM)

Compound: CN(C)[C@@H]1C(O)=C(C(N)=O)C(=O)[C@@]2(O)C(O)=C3C(=O)c4c(O)cccc4[C@@](C)(O)[C@H]3[C@H](O)[C@@H]12 [OXYTETRACYCLINE]
- MIC (Bacillus subtilis): 9.2 µg/mL (≈ 20 µM)
- MIC (Micrococcus luteus): 0.3 µg/mL (≈ 0.652 µM)

Compound: NC[C@H]1O[C@H](O[C@H]2[C@H](O)[C@@H](O[C@H]3O[C@H](CO)[C@@H](O)[C@H](N)[C@H]3O)[C@H](N)C[C@@H]2N)[C@H](O)[C@@H](O)[C@@H]1O [KANAMYCIN]
- MIC [1]: 0.6 µg/mL (≈ 1.24 µM)

Compound: NYSTATIN
- MIC (Wickerhamomyces anomalus): 4.6 µg/mL
- MIC (Mucor hiemalis): 9.2 µg/mL
- MIC (Candida albicans): 9.2 µg/mL
